Experimental data taken from patent US20030135033A1, “Compounds and methods for the identification and/ or validation of a target” (priority 2002, published 2003).

How the values were obtained:
Assay type in all cases: cell-based, human
PTEN mRNA [1] = experiment: PTEN knock down by RNAi versus antisense oligonucleotide (Western blot, dose response)
Method: The cells were infected using any of these two constructs according to the methods described herein above.
The result of this experiment is depicted in FIG. 18. […] As a positive control an antisense oligonucleotide specific for PTEN referred to as GeneBloc 53 (disclosed above) was also applied to the respective expression system at different concentrations (60 nM, 15 nM, 3.75 nM and 0.93 nM).
To further illustrate the impact of RNAi which is specific for PTEN, on the ratio of PTEN to p110 a dose response was generated which is shown in FIG. 19. From FIG. 19 it may be taken that even at the lowest concentration, i. e. 0.03 nM, the PTEN specific RNAi still reduces the ratio of PTEN to p 110 to about one third of the respective control. […] This is in clear contrast to RNAi which is not specific for PTEN.

Hela cells = experiment: Cell growth on matrigel; conditions: 48 h transfection, then 48 to 72 h on matrigel, versus control GeneBloc
Source text: More particularly, a schematic pathway with PTEN inhibiting PI-3K activity is shown which would normally phosphorylate Akt thus leading to proliferation, survival and migration of HeLa cells as a model system for PTEN +/+ cells. FIG. 9 B presents the Western immunoblot analysis of an experiment studying the influence of PTEN specific antisense oligonucleotide or a control antisense nucleotide designated as mismatch GeneBloc™. PTEN is only present in the control sample, but is absent when PTEN-specific antisense oligonucleotides are used. The successful knockdown of PTEN causes phosphorylation of Akt, indicative of induction of the signalling pathway. […] Growth on matrigel is used as a surrogate in vitro assay for metastatic or invasive cell growth. […]
Loss of PTEN function has been correlated with an increased metastatic growth potential in late stage human cancers (Cantley, L. C. and Neel, B. G. (1999). New insights into tumor suppression: PTEN suppresses tumor formation by restraining the phosphoinositide 3-kinase/AKT pathway. Proc Natl Acad Sci U S A 96, 4240-4245; Ali, I. U. (2000). Gatekeeper for endometrium: the PTEN tumor suppressor gene. J Natl Cancer Inst 92, 861-863). […] HeLa cells expressing an inducible version of a constitutively active PI 3-kinase, p110* […] were analyzed in parallel. […]

PTEN mRNA [2] = experiment: Immunoblot of PTEN and phosphorylated Akt after GeneBloc transfection of HeLa cells; conditions: 30 nM, 48 h
Method: More particularly, HeLa cells (380.000 cells/plate) and PC-3 cells (450.000 cells/plate) were transfected in parallel on 10 cm plates. Each cell line was treated for 48 h in duplicate samples with 30 nM of PTEN GeneBloc 53 or GBC. The cell extracts were analyzed by immunoblotting for the relative amounts of p110, PTEN and phosphorylated Akt (P*-Akt) as indicated on the right. The band which migrates just above the PTEN signal was caused by unspecific reaction of the secondary antibody.
More particularly, a schematic pathway with PTEN inhibiting PI-3K activity is shown which would normally phosphorylate Akt thus leading to proliferation, survival and migration of HeLa cells as a model system for PTEN +/+ cells. FIG. 9 B presents the Western immunoblot analysis of an experiment studying the influence of PTEN specific antisense oligonucleotide or a control antisense nucleotide designated as mismatch GeneBloc™. PTEN is only present in the control sample, but is absent when PTEN-specific antisense oligonucleotides are used. The successful knockdown of PTEN causes phosphorylation of Akt, indicative of induction of the signalling pathway. […] Growth on matrigel is used as a surrogate in vitro assay for metastatic or invasive cell growth. The cells treated with PTEN third generation antisense oligonucleotide (“PTEN GeneBloc™”) shown in FIG. 9C have a significant growth advantage over the control-treated cells.
Transfections were carried out in 96 well or 10-cm plates (at 30% to 50% confluency) by using various cationic lipids such as Oligofectamine, Lipofectamine (Life Technologies), NC388 (Ribozyme Pharmaceuticals, Inc., Boulder, CO), or FuGene 6 (Roche) according to the manufacturer's instructions. […]
Cells were washed twice with cold phosphate-buffered saline and lysed at 4° C. in lysis buffer containing 20 mM Tris (pH 7.5), 137 mM NaCl, 15% (vol/vol) glycerol, 1% (vol/vol) Nonidet P-40 (NP-40), 2 mM phenylmethylsulfonyl fluoride, […], 20 mM leupeptin, 2 mM benzamidine, 1 mM sodium vanadate, 25 mM […]-glycerol phosphate, 50 mM NaF and 10 mM NaPPi. Lysates were cleared by centrifugation at 14,000× g for 5 minutes and aliquots of the lysates were analyzed for protein expression by Western-blotting: Samples were separated by SDS-PAGE and transferred to nitrocellulose-filters (Schleicher & Schuell). […] Bound antibody was detected using anti-mouse- or anti-rabbit-conjugated horse radish peroxidase (Transduction Laboratories, BD) in TBST, washed, and developed using the SuperSignal West Dura (Pierce) or ECL (Amersham) chemoluminescence substrates.
The effect of GeneBloc induced transient knock down of PTEN expression was to be compared to the loss of PTEN function in human tumor cells. […] After 2 days the cell extracts were analyzed by Western-blotting. […]

## ucuccuuTTGTTTCTGcuaacga (UCUCCUUTTGTTTCTGCUAACGA; chemistry not fully specified) [PTEN 53, third generation antisense oligonucleotide (GeneBloc) against PTEN]
PTEN mRNA [1]; PTEN knockdown, Western blot
  concentration required compared to RNAi: requires higher concentrations compared to RNAi
PTEN mRNA [1]; antisense oligonucleotide at 60 nM, 15 nM, 3.75 nM and 0.93 nM
  PTEN expression (Western blot): allows for a specific knockdown of PTEN
Hela cells
  growth on matrigel: increased potential to form network structures on matrigel and grew better
PTEN mRNA [2]
  PTEN (immunoblot): degradation of PTEN mRNA
  phosphorylated Akt (P*-Akt) (immunoblot): generation of phosphorylated Akt
PTEN mRNA [2]; listed as PTEN GeneBloc 53
  PTEN (immunoblot): strong reduction in PTEN protein
  phosphorylated Akt (P*-Akt) (immunoblot): substantial increase in Akt phosphorylation
